From US9365572B2, “PI3K and/or mTOR inhibitor” (XUANZHU PHARMA CO., LTD., priority 2012, dated 2016)

Columns and labels:
[1] = biological target: Platelet Activating Factor (PAF) (Homo sapiens (Human), UniProt P25105); assay: Radioligand binding assay No. 265010; conditions: test substance 10 μM, read-out: Inhibitory rate (%), Platelet Activating Factor (PAF)
[2] = test system: A498; assay: In vitro cytological inhibitory activity (XTT); format: cell-based; conditions: Homo sapiens, 72 hrs
Method: A498: Human renal carcinoma cell line.
(§1) 1. Preparation of agents and compounds:
(§2) • 1.1 Preparation of phosphoric acid buffering solution (PBS): 8 g NaCl, 0.2 g KCl, 1.44 g Na2HPO4 and 0.24 g KH2PO4 were weighed and added to 800 mL ultrapure water. The mixture was adjusted to pH=7.4, and ultrapure water was added to the metered volume of IL. Then the autoclaving was conducted for 20 mins. • 1.2 Preparation of XTT detection working solution: 100 mg (2,3-Bis-(2-methoxy-4-nitro-5-sulfophenyl)-2H-tetrazolium-5-carboxanilide); 2,3-bis(2-methoxy-4-nitro-5-sulfophenyl)-5-[(phenylamino)carbonyl]-2H-tetrazolium hydroxide (XTT) powder was weighed, and dissolved under protection from light 300 mL of phenol red-free and serum-free RPMI1640 culture, which had been warmed up to 50° C. The resulting mixture was filtered, packaged and used immediately or in one week. The complete process was conducted under protection from light. • 1.3 Preparation of the test compound • Preparation of the stock solution of the test compound: The test compound powder was dissolved in DMSO in a concentration of 10 mM. • Preparation of the gradiently diluted solution of the test compound: 10 mM of the stock solution of the test compound was successively and gradiently diluted with DMSO by 4 folds for 10 concentrations. […]

[3] = biological target: Dopamine D1 (Homo sapiens (Human), UniProt P21728); assay: Radioligand binding assay No. 219500; conditions: test substance 10 μM, read-out: Inhibitory rate (%), Dopamine D1
Dopamine D1, sequence (P21728 whole entry): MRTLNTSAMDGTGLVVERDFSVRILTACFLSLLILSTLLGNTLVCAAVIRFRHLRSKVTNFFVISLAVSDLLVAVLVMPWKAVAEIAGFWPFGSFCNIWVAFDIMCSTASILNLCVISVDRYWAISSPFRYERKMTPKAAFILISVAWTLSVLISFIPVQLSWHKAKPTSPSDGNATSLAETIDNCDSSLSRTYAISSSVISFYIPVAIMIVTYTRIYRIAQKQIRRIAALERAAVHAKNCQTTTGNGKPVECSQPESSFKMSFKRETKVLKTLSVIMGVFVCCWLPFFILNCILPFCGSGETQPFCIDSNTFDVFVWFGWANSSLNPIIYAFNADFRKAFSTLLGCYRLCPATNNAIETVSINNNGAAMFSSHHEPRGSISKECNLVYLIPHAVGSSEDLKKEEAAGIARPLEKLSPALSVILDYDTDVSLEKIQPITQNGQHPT

[4] = biological target: Melatonin MT1 (Homo sapiens (Human), UniProt P48039); assay: Radioligand binding assay No. 251600; conditions: test substance 10 μM, read-out: Inhibitory rate (%), Melatonin MT1
[5] = biological target: Bradykinin B1 (Homo sapiens (Human), UniProt P46663); assay: Radioligand binding assay No. 212510; conditions: test substance 10 μM, read-out: Inhibitory rate (%), Bradykinin B1
[6] = biological target: Muscarinic M1 (Homo sapiens (Human), UniProt P11229); assay: Radioligand binding assay No. 252610; conditions: test substance 10 μM, read-out: Inhibitory rate (%), Muscarinic M1
Muscarinic M1, sequence (P11229 whole entry): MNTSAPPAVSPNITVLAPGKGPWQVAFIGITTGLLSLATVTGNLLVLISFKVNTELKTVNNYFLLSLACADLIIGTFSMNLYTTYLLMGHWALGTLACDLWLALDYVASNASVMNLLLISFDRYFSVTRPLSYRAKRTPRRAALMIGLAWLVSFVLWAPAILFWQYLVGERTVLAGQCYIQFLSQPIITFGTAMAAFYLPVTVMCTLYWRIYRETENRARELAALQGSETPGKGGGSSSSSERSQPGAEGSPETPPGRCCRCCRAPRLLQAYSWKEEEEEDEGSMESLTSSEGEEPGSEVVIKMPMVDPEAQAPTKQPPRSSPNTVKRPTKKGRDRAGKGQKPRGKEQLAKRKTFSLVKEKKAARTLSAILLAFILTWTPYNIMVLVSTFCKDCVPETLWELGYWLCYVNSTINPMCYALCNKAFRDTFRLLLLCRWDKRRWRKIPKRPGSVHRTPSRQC

[7] = biological target: Dopamine D4.2 (Homo sapiens (Human), UniProt P21917, DEL265-296); assay: Radioligand binding assay No. 219900; conditions: test substance 10 μM, read-out: Inhibitory rate (%), Dopamine D4.2
Dopamine D4.2, sequence (P21917 other isoform, or with tags, fused parts or gaps del 265-296): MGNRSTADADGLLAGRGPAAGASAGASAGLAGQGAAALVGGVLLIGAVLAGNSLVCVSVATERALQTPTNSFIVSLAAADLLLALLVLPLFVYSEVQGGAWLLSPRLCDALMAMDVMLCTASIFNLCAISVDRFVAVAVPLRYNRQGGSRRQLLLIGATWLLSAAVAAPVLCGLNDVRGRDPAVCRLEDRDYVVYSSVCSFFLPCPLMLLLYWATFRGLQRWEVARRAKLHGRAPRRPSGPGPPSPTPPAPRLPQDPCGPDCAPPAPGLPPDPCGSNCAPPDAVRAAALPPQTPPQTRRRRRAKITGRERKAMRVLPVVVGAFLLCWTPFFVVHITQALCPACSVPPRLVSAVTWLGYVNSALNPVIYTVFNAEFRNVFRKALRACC

[8] = biological target: Neuropeptide Y Y1 (Homo sapiens (Human), UniProt P25929); assay: Radioligand binding assay No. 257010; conditions: test substance 10 μM, read-out: Inhibitory rate (%), Neuropeptide Y Y1
Neuropeptide Y Y1, sequence (P25929 whole entry): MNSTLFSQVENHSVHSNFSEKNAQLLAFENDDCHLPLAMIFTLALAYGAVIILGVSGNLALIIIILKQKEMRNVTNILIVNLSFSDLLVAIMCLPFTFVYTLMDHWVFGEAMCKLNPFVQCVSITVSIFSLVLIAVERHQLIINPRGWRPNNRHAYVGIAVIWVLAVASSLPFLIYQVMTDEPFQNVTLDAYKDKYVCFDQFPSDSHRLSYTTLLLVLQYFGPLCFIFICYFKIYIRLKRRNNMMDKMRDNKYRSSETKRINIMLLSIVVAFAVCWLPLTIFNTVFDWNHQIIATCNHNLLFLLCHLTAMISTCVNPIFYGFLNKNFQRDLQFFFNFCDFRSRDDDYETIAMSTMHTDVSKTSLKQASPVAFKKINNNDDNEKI

[9] = biological target: Epidermal Growth Factor (EGF) (Homo sapiens (Human), UniProt P00533); assay: Radioligand binding assay No. 225510; conditions: test substance 10 μM, read-out: Inhibitory rate (%), Epidermal Growth Factor (EGF)
Epidermal Growth Factor (EGF), sequence (P00533 25-1210): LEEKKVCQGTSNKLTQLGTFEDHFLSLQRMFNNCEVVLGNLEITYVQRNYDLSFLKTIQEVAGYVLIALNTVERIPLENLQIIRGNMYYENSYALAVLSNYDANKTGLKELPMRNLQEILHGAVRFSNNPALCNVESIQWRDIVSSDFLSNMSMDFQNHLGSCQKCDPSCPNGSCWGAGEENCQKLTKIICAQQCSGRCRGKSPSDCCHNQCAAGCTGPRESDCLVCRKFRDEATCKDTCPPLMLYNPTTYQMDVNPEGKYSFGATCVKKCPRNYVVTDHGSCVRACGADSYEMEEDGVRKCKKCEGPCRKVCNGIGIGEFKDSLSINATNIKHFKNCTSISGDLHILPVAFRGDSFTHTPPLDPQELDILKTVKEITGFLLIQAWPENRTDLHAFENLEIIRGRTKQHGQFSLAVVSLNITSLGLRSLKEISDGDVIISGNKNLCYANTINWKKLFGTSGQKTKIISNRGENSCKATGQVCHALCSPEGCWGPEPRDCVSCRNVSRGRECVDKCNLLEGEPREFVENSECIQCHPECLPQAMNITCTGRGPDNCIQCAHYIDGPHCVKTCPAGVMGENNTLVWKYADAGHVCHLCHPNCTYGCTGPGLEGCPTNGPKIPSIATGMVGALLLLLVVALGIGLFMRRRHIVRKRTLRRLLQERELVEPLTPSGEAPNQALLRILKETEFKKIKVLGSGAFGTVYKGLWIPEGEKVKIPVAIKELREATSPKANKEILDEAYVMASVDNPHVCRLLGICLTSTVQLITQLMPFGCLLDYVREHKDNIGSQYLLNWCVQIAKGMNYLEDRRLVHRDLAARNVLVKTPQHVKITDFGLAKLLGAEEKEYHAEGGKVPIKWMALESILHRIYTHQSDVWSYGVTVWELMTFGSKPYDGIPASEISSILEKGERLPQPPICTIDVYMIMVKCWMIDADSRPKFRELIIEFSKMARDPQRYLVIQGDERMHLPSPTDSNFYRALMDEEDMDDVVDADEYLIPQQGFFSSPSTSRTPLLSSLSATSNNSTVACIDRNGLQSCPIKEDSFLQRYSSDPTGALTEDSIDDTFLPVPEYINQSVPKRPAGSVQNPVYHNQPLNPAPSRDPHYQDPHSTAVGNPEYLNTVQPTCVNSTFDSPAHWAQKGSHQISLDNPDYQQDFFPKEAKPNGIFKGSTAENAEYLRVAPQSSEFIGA

[10] = test system: Transporter, GABA; assay: Radioligand binding assay No. 226400; conditions: test substance 10 μM; rat
[11] = biological target: Serotonin (5-Hydroxytryptamine) 5-HT3 (Homo sapiens (Human), UniProt P46098); assay: Radioligand binding assay No. 271910; conditions: test substance 10 μM, read-out: Inhibitory rate (%), Serotonin (5-Hydroxytryptamine) 5-HT3
Serotonin (5-Hydroxytryptamine) 5-HT3, sequence (P46098 24-478): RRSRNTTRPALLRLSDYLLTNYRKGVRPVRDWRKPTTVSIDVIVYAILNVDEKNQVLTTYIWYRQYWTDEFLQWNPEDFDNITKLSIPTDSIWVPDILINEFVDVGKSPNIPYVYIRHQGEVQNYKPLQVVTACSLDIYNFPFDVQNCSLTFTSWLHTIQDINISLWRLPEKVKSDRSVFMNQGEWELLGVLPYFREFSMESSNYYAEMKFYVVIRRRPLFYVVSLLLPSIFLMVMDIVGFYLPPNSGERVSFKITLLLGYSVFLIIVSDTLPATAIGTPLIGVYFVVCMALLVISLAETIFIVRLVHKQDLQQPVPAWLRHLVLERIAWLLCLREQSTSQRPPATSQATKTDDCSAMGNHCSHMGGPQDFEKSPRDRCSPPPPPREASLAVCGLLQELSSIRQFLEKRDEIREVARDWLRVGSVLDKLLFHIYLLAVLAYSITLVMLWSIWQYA

[12] = test system: Sodium Channel, Site2; assay: Radioligand binding assay No. 279510; conditions: test substance 10 μM; rat
[13] = biological target: Potassium Channel hERG (Homo sapiens (Human), UniProt Q12809); assay: Radioligand binding assay No. 265900; conditions: test substance 10 μM, read-out: Inhibitory rate (%), Potassium Channel hERG
Potassium Channel hERG, sequence (Q12809 whole entry): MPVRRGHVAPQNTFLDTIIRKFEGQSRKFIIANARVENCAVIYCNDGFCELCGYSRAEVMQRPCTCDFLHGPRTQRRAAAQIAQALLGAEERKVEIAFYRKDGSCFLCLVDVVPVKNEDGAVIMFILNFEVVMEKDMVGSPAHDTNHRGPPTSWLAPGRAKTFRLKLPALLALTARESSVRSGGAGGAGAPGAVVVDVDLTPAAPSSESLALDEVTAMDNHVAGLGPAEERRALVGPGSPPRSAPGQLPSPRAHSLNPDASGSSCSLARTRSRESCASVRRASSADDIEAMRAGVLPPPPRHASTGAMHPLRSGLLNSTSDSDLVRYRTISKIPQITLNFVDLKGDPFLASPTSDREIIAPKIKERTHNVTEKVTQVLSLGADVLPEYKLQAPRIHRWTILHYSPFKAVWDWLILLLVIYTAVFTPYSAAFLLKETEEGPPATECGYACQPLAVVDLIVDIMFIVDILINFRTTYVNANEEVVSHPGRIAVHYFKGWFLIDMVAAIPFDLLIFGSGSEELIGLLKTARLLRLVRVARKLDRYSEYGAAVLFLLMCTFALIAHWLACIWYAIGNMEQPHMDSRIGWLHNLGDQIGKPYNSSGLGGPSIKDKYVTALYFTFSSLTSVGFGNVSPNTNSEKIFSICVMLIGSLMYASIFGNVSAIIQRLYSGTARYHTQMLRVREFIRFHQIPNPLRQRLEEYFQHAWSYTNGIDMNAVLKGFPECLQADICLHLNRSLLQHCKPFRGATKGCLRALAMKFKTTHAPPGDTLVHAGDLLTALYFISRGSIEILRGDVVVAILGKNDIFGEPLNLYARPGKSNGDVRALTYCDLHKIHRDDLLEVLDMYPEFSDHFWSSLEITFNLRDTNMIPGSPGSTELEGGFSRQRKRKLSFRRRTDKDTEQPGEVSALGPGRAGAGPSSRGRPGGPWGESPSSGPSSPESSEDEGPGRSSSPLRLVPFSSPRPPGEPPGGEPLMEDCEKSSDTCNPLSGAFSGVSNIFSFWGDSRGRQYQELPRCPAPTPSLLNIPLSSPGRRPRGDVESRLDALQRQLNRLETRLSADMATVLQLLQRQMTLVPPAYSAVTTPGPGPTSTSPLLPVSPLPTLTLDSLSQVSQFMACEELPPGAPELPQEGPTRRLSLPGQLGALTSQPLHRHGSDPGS

[14] = test system: PC-3; assay: In vitro cytological inhibitory activity (XTT); format: cell-based; conditions: Homo sapiens, 72 hrs
Method: PC-3: Human prostatic carcinoma cell line;
as §1, §2

Platelet Activating Factor (PAF), sequence (P25105 whole entry): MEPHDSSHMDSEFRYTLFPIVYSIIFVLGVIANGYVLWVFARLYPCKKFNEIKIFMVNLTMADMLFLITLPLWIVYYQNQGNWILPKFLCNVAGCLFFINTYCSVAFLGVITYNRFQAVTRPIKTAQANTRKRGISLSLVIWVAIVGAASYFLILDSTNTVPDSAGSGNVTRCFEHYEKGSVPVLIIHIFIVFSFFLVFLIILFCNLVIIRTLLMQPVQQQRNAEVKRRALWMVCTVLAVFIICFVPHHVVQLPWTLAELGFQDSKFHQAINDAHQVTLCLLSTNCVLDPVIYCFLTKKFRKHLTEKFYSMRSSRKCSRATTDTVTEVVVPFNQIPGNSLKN

| Compound | inhibition at 10 µM [1] | IC50 [2] | inhibition at 10 µM [3] | inhibition at 10 µM [4] | inhibition at 10 µM [5] | inhibition at 10 µM [6] | inhibition at 10 µM [7] | inhibition at 10 µM [8] | inhibition at 10 µM [9] | Inhibitory rate (%), Transporter, GABA [10] | inhibition at 10 µM [11] | Inhibitory rate (%), Sodium Channel, Site2 [12] | inhibition at 10 µM [13] | IC50 [14] |
| --- | --- | --- | --- | --- | --- | --- | --- | --- | --- | --- | --- | --- | --- | --- |
| Nc1ccc(-c2ccc3ncc4c(=O)[nH]c(=O)n(-c5cccc(C(F)(F)F)c5)c4c3n2)cn1 [Compound 5, 9-(6-aminopyridin-3-yl)-1-(3-(trifluoromethyl)phenyl)pyrimido[5,4-c][1,5]naphthyridine-2,4(1H,3H)-dione] | 20% | 83.7 nM | 21% | 17% | 0% | 18% | 12% | 3% | 11% | 12% | 8% | 7% | 2% | – |
| O=c1[nH]c(=O)n(-c2cccc(C(F)(F)F)c2)c2c1cnc1ccc(-c3cnc4[nH]ccc4c3)nc12 [Compound 30, 9-(1H-pyrrolo[2,3-b]pyridin-5-yl)-1-(3-(trifluoromethyl)phenyl)pyrimido[5,4-c][1,5]naphthyridine-2,4(1H,3H)-dione] | – | – | – | – | – | – | – | – | – | – | – | – | – | 25.6 nM |
